Reference: patent US12522583B2, “Benzimidazole derivatives and aza-benzimidazole derivatives as Janus kinase 2 inhibitors and uses thereof” (Dana-Farber Cancer Institute, Inc., priority 2018, dated 2026)

Assays:
Test in all cases: KINOMEscan
Format in all cases: binding
MKNK1 = MKNK1 (Homo sapiens (Human), UniProt Q9BUB5); settings: read-out: percent control
Excerpt: (§1) Example 2. In Vitro Kinase Selectivity Profiling of the Compounds of the Present Disclosure

PRKG2 = PRKG2 (Homo sapiens (Human), UniProt Q13237); settings: read-out: percent control
Excerpt: as §1

[1] = biological target: RSK2(Kin.Dom.1-N-terminal) (Homo sapiens (Human), UniProt P51812); settings: read-out: percent control
Excerpt: as §1

MET(Y1235D) = MET(Y1235D) (Homo sapiens (Human), UniProt P08581, Y1235D); settings: read-out: percent control
Excerpt: as §1

GCN2(Kin.Dom.2, S808G) = GCN2(Kin.Dom.2, S808G) (Homo sapiens, UniProt Q9P2K8, S808G); settings: read-out: percent control
Excerpt: as §1

ERBB3 = ERBB3 (Homo sapiens (Human), UniProt P21860); settings: read-out: percent control
Excerpt: as §1

TIE2 = TIE2 (Homo sapiens (Human), UniProt Q02763); settings: read-out: percent control
Excerpt: as §1

FYN = FYN (Homo sapiens (Human), UniProt P06241); settings: read-out: percent control
Excerpt: as §1

PIM1 = PIM1 (Homo sapiens (Human), UniProt P11309); settings: read-out: percent control
Excerpt: as §1

RET(M918T) = RET(M918T) (Homo sapiens (Human), UniProt P07949, M918T); settings: read-out: percent control
Excerpt: as §1

WEE1 = WEE1 (Homo sapiens (Human), UniProt P30291); settings: read-out: percent control
Excerpt: as §1

ACVR2B = ACVR2B (Homo sapiens (Human), UniProt Q13705); settings: read-out: percent control
Excerpt: as §1

GRK4 = GRK4 (Homo sapiens (Human), UniProt P32298); settings: read-out: percent control
Excerpt: as §1

GRK3 = GRK3 (Homo sapiens (Human), UniProt P35626); settings: read-out: percent control
Excerpt: as §1

CSNK1A1 = CSNK1A1 (Homo sapiens (Human), UniProt P48729); settings: read-out: percent control
Excerpt: as §1

PKAC-alpha = PKAC-alpha (Homo sapiens (Human), UniProt P17612); settings: read-out: percent control
Excerpt: as §1

EGFR(L858R, T790M) = EGFR(L858R, T790M) (Homo sapiens (Human), UniProt P00533, L858R/T790M); settings: read-out: percent control
Excerpt: as §1

PLK2 = PLK2 (Homo sapiens (Human), UniProt Q9NYY3); settings: read-out: percent control
Chain of PLK2 (Q9NYY3 whole entry): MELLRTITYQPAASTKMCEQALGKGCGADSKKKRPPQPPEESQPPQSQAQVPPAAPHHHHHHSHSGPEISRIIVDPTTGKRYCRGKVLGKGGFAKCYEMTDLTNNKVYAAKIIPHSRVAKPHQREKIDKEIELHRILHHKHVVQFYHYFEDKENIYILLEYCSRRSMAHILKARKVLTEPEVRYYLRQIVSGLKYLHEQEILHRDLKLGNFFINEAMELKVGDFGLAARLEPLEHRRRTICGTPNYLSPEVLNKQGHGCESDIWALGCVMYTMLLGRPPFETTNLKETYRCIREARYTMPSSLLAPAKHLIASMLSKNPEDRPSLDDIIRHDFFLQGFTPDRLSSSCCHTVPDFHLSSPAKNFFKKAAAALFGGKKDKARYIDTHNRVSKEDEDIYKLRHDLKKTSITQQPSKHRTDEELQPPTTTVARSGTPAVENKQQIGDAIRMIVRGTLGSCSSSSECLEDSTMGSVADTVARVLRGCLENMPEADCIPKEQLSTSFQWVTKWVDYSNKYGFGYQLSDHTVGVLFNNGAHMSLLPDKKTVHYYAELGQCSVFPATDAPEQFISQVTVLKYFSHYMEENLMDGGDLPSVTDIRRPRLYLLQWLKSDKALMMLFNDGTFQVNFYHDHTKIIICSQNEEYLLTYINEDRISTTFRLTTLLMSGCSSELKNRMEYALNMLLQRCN
Excerpt: as §1

LZK = LZK (Homo sapiens (Human), UniProt O43283); settings: read-out: percent control
Chain of LZK (O43283 whole entry): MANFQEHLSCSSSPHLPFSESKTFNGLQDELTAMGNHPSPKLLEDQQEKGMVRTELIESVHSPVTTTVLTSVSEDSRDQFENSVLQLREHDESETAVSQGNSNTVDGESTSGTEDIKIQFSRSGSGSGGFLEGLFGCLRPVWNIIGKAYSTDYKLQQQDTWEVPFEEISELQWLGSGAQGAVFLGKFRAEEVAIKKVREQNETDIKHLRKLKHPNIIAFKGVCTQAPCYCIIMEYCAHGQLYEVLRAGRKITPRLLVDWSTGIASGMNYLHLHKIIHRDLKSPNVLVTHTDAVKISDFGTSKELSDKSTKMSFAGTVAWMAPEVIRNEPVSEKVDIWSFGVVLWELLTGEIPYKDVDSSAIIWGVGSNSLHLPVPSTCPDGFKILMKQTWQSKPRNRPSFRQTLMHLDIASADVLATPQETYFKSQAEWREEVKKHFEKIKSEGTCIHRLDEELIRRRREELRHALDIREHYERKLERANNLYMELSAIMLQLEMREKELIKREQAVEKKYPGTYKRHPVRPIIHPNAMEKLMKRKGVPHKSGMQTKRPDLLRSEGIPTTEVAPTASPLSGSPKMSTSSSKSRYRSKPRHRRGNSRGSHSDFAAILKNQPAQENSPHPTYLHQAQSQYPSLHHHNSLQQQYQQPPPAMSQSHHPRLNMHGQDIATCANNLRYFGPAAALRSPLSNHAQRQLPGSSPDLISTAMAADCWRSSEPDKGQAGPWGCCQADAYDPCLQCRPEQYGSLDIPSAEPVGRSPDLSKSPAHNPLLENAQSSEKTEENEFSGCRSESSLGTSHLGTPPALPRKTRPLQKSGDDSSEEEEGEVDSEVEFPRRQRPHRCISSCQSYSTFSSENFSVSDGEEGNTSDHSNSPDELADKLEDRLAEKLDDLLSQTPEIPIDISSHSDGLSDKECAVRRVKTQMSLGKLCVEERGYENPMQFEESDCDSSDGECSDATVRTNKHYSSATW
Excerpt: as §1

NEK9 = NEK9 (Homo sapiens (Human), UniProt Q8TD19); settings: read-out: percent control
Chain of NEK9 (Q8TD19 whole entry): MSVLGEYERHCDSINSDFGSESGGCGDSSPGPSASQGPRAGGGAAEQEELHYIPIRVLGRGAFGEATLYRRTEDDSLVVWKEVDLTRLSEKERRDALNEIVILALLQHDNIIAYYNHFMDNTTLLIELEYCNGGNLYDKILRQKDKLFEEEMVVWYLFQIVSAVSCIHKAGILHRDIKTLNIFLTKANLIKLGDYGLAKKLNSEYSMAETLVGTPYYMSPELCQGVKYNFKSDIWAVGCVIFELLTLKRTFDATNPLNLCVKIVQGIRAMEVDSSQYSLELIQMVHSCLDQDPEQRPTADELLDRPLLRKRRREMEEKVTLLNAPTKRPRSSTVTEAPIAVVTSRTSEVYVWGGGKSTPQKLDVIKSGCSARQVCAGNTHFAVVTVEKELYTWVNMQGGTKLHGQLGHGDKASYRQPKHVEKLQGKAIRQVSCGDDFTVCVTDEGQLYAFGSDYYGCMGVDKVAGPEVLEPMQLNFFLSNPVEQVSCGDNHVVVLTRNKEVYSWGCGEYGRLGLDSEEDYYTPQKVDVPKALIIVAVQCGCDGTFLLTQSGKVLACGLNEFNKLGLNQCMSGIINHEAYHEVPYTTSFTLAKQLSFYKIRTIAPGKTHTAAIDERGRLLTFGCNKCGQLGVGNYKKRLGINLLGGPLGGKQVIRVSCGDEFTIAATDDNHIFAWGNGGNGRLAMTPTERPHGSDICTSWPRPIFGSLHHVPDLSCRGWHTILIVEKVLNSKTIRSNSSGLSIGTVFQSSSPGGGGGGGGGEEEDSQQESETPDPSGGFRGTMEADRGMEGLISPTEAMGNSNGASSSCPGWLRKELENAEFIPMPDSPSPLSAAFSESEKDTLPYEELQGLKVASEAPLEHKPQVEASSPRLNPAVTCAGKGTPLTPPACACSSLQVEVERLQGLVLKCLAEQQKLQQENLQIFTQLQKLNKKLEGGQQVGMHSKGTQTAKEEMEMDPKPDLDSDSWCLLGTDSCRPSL
Excerpt: as §1

MUSK = MUSK (Homo sapiens (Human), UniProt O15146); settings: read-out: percent control
Excerpt: as §1

ABL1-nonphosphorylated = ABL1-nonphosphorylated (Homo sapiens (Human), UniProt P00519); settings: read-out: percent control
Excerpt: as §1

DDR2 = DDR2 (Homo sapiens (Human), UniProt Q16832); settings: read-out: percent control
Chain of DDR2 (Q16832 22-855): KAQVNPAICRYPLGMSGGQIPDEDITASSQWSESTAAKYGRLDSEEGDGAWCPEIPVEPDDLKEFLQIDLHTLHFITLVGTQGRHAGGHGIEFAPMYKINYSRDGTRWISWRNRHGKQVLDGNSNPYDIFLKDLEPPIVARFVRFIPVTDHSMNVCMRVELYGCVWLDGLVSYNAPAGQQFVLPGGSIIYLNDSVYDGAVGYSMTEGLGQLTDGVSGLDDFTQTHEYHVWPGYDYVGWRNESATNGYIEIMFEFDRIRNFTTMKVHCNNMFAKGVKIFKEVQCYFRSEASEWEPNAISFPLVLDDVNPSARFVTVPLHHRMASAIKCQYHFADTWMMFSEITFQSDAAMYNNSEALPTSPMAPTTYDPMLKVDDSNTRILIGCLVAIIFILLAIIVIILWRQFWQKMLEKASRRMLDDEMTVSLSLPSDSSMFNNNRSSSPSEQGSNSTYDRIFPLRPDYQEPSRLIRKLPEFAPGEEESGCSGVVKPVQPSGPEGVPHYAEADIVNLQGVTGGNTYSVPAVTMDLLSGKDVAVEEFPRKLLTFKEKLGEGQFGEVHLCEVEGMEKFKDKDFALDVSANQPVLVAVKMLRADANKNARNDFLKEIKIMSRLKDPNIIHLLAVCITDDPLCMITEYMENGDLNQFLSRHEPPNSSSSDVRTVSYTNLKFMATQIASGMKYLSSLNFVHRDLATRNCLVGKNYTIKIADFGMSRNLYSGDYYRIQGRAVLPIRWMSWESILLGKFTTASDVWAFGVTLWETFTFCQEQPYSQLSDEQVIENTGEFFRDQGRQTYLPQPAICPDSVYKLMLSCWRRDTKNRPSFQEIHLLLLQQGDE
Excerpt: as §1

RIPK4 = RIPK4 (Homo sapiens (Human), UniProt P57078); settings: read-out: percent control
Chain of RIPK4 (P57078 whole entry): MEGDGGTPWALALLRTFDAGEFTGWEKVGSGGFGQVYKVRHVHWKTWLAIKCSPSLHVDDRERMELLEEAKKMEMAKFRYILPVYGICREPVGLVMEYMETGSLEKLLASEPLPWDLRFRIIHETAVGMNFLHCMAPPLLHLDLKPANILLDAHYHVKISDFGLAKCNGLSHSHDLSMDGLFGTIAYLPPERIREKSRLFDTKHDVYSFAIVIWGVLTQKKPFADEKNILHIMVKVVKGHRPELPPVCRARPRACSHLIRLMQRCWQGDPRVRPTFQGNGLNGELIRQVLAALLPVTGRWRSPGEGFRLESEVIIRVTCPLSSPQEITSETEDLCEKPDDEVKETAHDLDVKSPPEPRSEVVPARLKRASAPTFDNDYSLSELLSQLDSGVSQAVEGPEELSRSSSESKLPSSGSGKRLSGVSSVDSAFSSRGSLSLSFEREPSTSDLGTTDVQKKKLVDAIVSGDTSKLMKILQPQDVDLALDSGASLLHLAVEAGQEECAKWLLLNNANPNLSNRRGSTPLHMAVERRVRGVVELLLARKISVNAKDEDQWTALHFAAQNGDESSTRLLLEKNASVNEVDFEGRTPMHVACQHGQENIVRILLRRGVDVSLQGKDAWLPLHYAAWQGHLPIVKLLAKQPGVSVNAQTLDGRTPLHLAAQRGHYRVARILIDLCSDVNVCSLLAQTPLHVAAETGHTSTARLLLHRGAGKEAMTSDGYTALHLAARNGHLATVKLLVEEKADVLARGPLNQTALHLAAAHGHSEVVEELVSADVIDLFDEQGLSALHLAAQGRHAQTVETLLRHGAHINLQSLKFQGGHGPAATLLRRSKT
Excerpt: as §1

TSSK1B = TSSK1B (Homo sapiens (Human), UniProt Q9BXA7); settings: read-out: percent control
Excerpt: as §1

CAMK2G = CAMK2G (Homo sapiens (Human), UniProt Q13555); settings: read-out: percent control
Excerpt: as §1

MARK4 = MARK4 (Homo sapiens (Human), UniProt Q96L34); settings: read-out: percent control
Excerpt: as §1

[2] = biological target: RSK1(Kin.Dom.2-C-terminal) (Homo sapiens (Human), UniProt Q15418); settings: read-out: percent control
Chain of RSK1(Kin.Dom.2-C-terminal) (Q15418 418-675 limits assumed): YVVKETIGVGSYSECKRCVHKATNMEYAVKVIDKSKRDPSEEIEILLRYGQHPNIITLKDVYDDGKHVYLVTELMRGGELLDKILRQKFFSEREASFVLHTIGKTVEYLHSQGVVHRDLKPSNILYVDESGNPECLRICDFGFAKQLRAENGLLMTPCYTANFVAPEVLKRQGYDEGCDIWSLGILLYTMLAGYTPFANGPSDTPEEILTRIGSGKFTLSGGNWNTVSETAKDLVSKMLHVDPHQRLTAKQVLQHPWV
Excerpt: as §1

CDC2L5 = CDC2L5 (Homo sapiens (Human), UniProt Q14004); settings: read-out: percent control
Excerpt: as §1

AKT3 = AKT3 (Homo sapiens (Human), UniProt Q9Y243); settings: read-out: percent control
Excerpt: as §1

EGFR(L747-T751del, Sins) = settings: 1 μM
Excerpt: as §1

TLK1 = TLK1 (Homo sapiens (Human), UniProt Q9UKI8); settings: read-out: percent control
Excerpt: as §1

ADCK4 = ADCK4 (Homo sapiens (Human), UniProt Q96D53); settings: read-out: percent control
Excerpt: as §1

EPHA3 = EPHA3 (Homo sapiens (Human), UniProt P29320); settings: read-out: percent control
Excerpt: as §1

CIT = CIT (Homo sapiens (Human), UniProt O14578); settings: read-out: percent control
Excerpt: as §1

MST1 = MST1 (Homo sapiens (Human), UniProt Q13043); settings: read-out: percent control
Chain of MST1 (Q13043 whole entry): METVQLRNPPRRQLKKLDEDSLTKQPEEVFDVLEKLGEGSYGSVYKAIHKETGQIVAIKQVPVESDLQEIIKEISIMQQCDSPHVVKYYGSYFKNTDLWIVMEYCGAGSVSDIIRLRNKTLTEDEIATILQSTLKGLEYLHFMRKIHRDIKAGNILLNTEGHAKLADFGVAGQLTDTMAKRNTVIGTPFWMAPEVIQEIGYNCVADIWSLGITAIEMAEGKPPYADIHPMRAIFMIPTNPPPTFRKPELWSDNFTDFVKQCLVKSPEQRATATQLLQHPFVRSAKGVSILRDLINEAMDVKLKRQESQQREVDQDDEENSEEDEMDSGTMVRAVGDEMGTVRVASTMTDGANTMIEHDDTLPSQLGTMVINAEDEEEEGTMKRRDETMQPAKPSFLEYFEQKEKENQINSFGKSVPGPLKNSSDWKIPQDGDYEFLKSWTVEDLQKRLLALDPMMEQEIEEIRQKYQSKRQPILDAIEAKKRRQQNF
Excerpt: as §1

KIT = KIT (Homo sapiens (Human), UniProt P10721); settings: read-out: percent control
Excerpt: as §1

DRAK2 = DRAK2 (Homo sapiens (Human), UniProt O94768); settings: read-out: percent control
Excerpt: as §1

EIF2AK1 = EIF2AK1 (Homo sapiens (Human), UniProt Q9BQI3); settings: read-out: percent control
Excerpt: as §1

PDPK1 = PDPK1 (Homo sapiens (Human), UniProt O15530); settings: read-out: percent control
Excerpt: as §1

Row | SMILES | remaining binding at 1 µM (MKNK1) [%] | remaining binding at 1 µM (PRKG2) [%] | remaining binding at 1 µM [1] [%] | remaining binding at 1 µM (MET(Y1235D)) [%] | remaining binding at 1 µM (GCN2(Kin.Dom.2, S808G)) [%] | remaining binding at 1 µM (ERBB3) [%] | remaining binding at 1 µM (TIE2) [%] | remaining binding at 1 µM (FYN) [%] | remaining binding at 1 µM (PIM1) [%] | remaining binding at 1 µM (RET(M918T)) [%] | remaining binding at 1 µM (WEE1) [%] | remaining binding at 1 µM (ACVR2B) [%] | remaining binding at 1 µM (GRK4) [%] | remaining binding at 1 µM (GRK3) [%] | remaining binding at 1 µM (CSNK1A1) [%] | remaining binding at 1 µM (PKAC-alpha) [%] | remaining binding at 1 µM (EGFR(L858R, T790M)) [%] | remaining binding at 1 µM (PLK2) [%] | remaining binding at 1 µM (LZK) [%] | remaining binding at 1 µM (NEK9) [%] | also measured
1 | CCN1CCN(Cc2ccc(Nc3nc4ccc(Oc5ccnc(NC(C)=O)c5)cc4n3C)cc2C(F)(F)F)CC1 [Compound I-2] | 95 | 92 | 95 | 71 | 28 | 62 | 81 | 80 | 100 | 0.8 | 95 | 97 | 99 | 100 | 72 | 65 | 100 | 94 | 100 | 87 | remaining binding at 1 µM (MUSK): 100%; remaining binding at 1 µM (ABL1-nonphosphorylated): 0.3%; remaining binding at 1 µM (DDR2): 0%; remaining binding at 1 µM (RIPK4): 86%; remaining binding at 1 µM (TSSK1B): 100%; remaining binding at 1 µM (CAMK2G): 100%; remaining binding at 1 µM (MARK4): 98%; remaining binding at 1 µM [2]: 93%; remaining binding at 1 µM (CDC2L5): 59%; remaining binding at 1 µM (AKT3): 99%; percent control (EGFR(L747-T751del, Sins)): 98%; remaining binding at 1 µM (TLK1): 87%; remaining binding at 1 µM (ADCK4): 84%; remaining binding at 1 µM (EPHA3): 52%; remaining binding at 1 µM (CIT): 90%; remaining binding at 1 µM (MST1): 93%; remaining binding at 1 µM (KIT): 0%; remaining binding at 1 µM (DRAK2): 100%; remaining binding at 1 µM (EIF2AK1): 75%; remaining binding at 1 µM (PDPK1): 94%
2 | CCN1CCN(Cc2ccc(Nc3nc4ccc(Oc5ccnc(NC(C)=O)c5)c(C)c4n3C)cc2C(F)(F)F)CC1 [Compound I-6, N-(4-(2-(4-((4-ethylpiperazin-1-yl)methyl)-3-(trifluoromethyl)phenylamino)-1,7-dimethyl-1H-benzo[d]imidazol-6-yloxy)pyridin-2-yl)acetamide] | 80 | 93 | 83 | 44 | 44 | 89 | 36 | 49 | 98 | 0.15 | 100 | 100 | 81 | 79 | 100 | 57 | 100 | 71 | 75 | 68 | remaining binding at 1 µM (MUSK): 72%; remaining binding at 1 µM (ABL1-nonphosphorylated): 0.05%; remaining binding at 1 µM (DDR2): 0%; remaining binding at 1 µM (RIPK4): 97%; remaining binding at 1 µM (TSSK1B): 100%; remaining binding at 1 µM (CAMK2G): 100%; remaining binding at 1 µM (MARK4): 83%; remaining binding at 1 µM [2]: 100%; remaining binding at 1 µM (CDC2L5): 3.8%; remaining binding at 1 µM (AKT3): 100%; percent control (EGFR(L747-T751del, Sins)): 100%; remaining binding at 1 µM (TLK1): 93%; remaining binding at 1 µM (ADCK4): 78%; remaining binding at 1 µM (EPHA3): 68%; remaining binding at 1 µM (CIT): 79%; remaining binding at 1 µM (MST1): 100%; remaining binding at 1 µM (KIT): 0.55%; remaining binding at 1 µM (DRAK2): 85%; remaining binding at 1 µM (EIF2AK1): 29%; remaining binding at 1 µM (PDPK1): 93%
